Assay results as given in patent US4146628A, “Antiarrhythmic quinuclidine carboxylic acid xylidide and method of producing the same and similar compounds” (priority 1977, dated 1979).
Values joined by “and” are separate entries in the source; they are usually repeats but may differ in a detail not shown here. Identical values can stand only once. “Also recorded” adds a separate entry of the source. Counter-ions that a name gives are not always drawn. Like-named read-outs stand apart in the source and are kept apart here.

What was measured:
[1] = Dahlbom and Dolby, Acta Pharm. Suecica (1969); cited from earlier work
[2] = Comparative tests of antiarrhythmic action, neurotoxicity and side effects (general statements); conditions: general statement
[3] = French Pat. No. 1,566,045; cited from earlier work
[4] = Summary comparison with lidocaine: ouabain-induced arrhythmia; format: in vivo; conditions: i.v.
[5] = Summary comparison with lidocaine: side effects; conditions: summary table
[6] = Ouabain-induced arrhythmia in the cat; format: in vivo; design: key to S.R. (sinus rhythm), Lidocaine-treated / S.R. (sinus rhythm), Compound I treated: +: denotes return to the rhythm
[7] = Occlusion-induced arrhythmias in conscious dogs, parenteral administration; format: in vivo
Description: The effect of parenteral administration of Compound I on occlusion-induced arrhythmias in conscious dogs was determined. Occulsion was achieved by ligation of the left anteria descending coronary artery on 5 dogs.
Compound I was administered once within 24 hours and once within 48 hours after ligation.

[8] = Pharmacokinetic parameters in conscious dogs with occlusion-induced arrhythmia; format: in vivo; conditions: dog, blood, iv
Description: The pharmacokinetic parameters of Compound I were determined in conscious dogs suffering from occlusion-induced arrhythmia. After intravenous injection of a single therapeutic dose, venous blood samples were withdrawn at given intervals, heparinized and analyzed for their content of Compound I by gas chromatography.

[9] = Interaction with electro shock-induced seizure; format: in vivo; conditions: 30 volts
Description: (§1) The lack of interaction of Compound I with other centrally active drugs may also be taken as an indication of its lack of activity in the CNS.

conscious, healthy dogs = conditions: dog, in vivo, iv, 5 mg/kg
[10] = Interaction with Indoklon-induced seizures; format: in vivo; conditions: Indoklon by inhalation 30 minutes later
Description: as §1

[11] = in vivo
normal heart [12] = assay: Effect on normal heart (ECG) in nembutal-anesthetized dog; format: in vivo; conditions: nembutal 25 mg/kg; cumulative i.v. dose 6 mg/kg over 30 minutes
[13] = Biological availability by the oral route in dog; format: in vivo
Description: The biological availability of Compound I administered by the oral route was determined first in a conscious, healthy dog that received a dose of 7.5 mg/kg subdivided in 6 gelatin capsules that were slipped down its throat.

[14] = Ouabain-induced arrhythmia in dogs; format: in vivo; design: key to S.R. (sinus rhythm), Compound I treated: +: denotes return to the rhythm
Description: In other experiments using mongrel dogs, the animals were anesthetized by an i.v. injection of nembutal (25 mg/kg), then arrhythmia was induced by the administration of decreasing doses of ouabain at 30 minute intervals, 40, 20 and 10 μg/kg. Treatment with Compound I was then carried out as described for cats.

[15] = Interaction with metrazole-induced convulsions; format: in vivo; conditions: metrazole 100 mg/kg; i.p. 30, 60 and 90 minutes prior to metrazole
Description: as §1

[16] = Acute toxicity, i.p. injection in mice; conditions: mouse, in vivo, ip, 0.5% solution, male albino ICR mice, probit analysis
Description: The toxicity of Compound I was determined by i.p. injection of a 0.5% solution of the drug into male, albino ICR mice weighing 20-25 g each. A group of six mice was used for each dose.

[17] = in vivo; remark: listed apart in the source
normal heart [18] = assay: Effect on normal heart (ECG) in nembutal-anesthetized cats; format: in vivo
Description: Nembutal anesthetized cats responded differently. […] If drug administration was discontinued at this stage, then the severe toxic effects would disappear after 40 minutes, the heart reverting to normal sinus rhythm.

normal heart [19] = assay: Effect on normal heart (ECG) in conscious healthy dogs; format: in vivo
Description: The effect of Compound I on the normal heart was determined by the administration of the compound as a bolus intravenous injection to conscious healthy dogs for which lead II of the electrocardiogram was monitored for as long as 2 hours after injection.
In one case, a single dose of 5 mg/kg was administered rapidly in order to achieve a high but transient concentration in the heart. […] The ECG record reverted to normal within 15 minutes.

[20] = Interaction with oxotremorine-induced tremors; format: in vivo; conditions: oxotremorine 20 μg/kg i.p.; given i.p. 30 minutes prior
Description: as §1

[21] = Occlusion-induced arrhythmias in conscious dogs, oral administration; format: in vivo; conditions: oral 15-20 mg/kg in 4 to 6 gelatin capsules, all cases
Description: Tests were also carried out to determine the effect of oral administration of Compound I on occlusion induced arrhythmias in conscious dogs.
Arrhythmia was induced by occlusion of the left anterior descending artery, as above described. Following this, Compound I was administered orally to the animals at the rate of 15-20 mg/kg, the dose being divided among 4 to 6 gelatin capsules, without prior treatment such as micronization or admixture with a diluent or carrier.

[22] = Effect of Compound II in arrhythmia induced by coronary occlusion; format: in vivo; conditions: dog 15 kg, 24 hours after ligation; i.v. 3 mg per kg
Description: Arrhythmia was induced in a dog of 15 kg body weight, by ligation of the left anteria descending coronary artery with a silk thread number 000.

[23] = Effect of Compound II in drug-induced (ouabain) arrhythmia; format: in vivo; conditions: 2.7 kg cat, nembutal; ouabain 70 μg per kg; i.v. 1.1 mg per kg
Description: Arrhythmia was induced in 2.7 kg cat, previously anesthetized with nembutal, by the slow infusion of ouabain over a period of one hour and to a total dose of 70 μg per kg.

albino mice = assay: Symptoms after intraperitoneal administration to albino mice; format: in vivo; conditions: i.p.
Description: This is confirmed by the tests of compound II, namely the hydrochloride of 2,6-xylidide of quinuclidine-2-carboxylic acid, which was produced both by the method of French Pat. No. 1,566,045, and by the method of the present invention. Administration of Compound II to albino mice by the intraperitoneal route induced the following symptoms: […]

[24] = cat 13, lidocaine HCl single i.v. injection 1.6 mg/kg
[25] = cat, lidocaine HCl single i.v. injection 4 mg/kg, 4 mg/kg
[26] = dog, conditions as Table 1, hydrochloride

Cc1cccc(C)c1NC(=O)C1CN2CCC1CC2 (centres unmarked) [2,6-xylidide of quinuclidine-3-carboxylic acid]
pharmacological effect [1]: no pharmacological effect except for a weak local anaesthetic action
cardiac antiarrhythmic action [2]: pronounced cardiac antiarrhythmic activity; also recorded: highly pronounced cardiac antiarrhythmic action

Cc1cccc(C)c1NC(=O)C1CC2CCN1CC2 (centres unmarked) [2,6-xylidide of quinuclidine-2-carboxylic acid]
action indicated [3]: antiarrhythmic and local anaesthetic action
cardiac antiarrhythmic action [2]: devoid of useful cardiac antiarrhythmic action; also recorded: devoid of useful antiarrhythmic properties; also recorded: devoid of any useful cardiac antiarrhythmic effect
neurotoxicity [2]: neurotoxic
cardiac antiarrhythmic action ([2]; listed as 2,6,-xylidide of quinuclidine-2-carboxylic acid): completely devoid of any useful antiarrhythmic action

CCN(CC)CC(=O)Nc1c(C)cccc1C [Lidocaine]
Onset of effect, ouabain-induced arrhythmia [4]: about 2 minutes
Side effects: Emesis [5]: partial
Side effects: Hypotension [5]: about 20%
B.P. (blood pressure), Lidocaine-treated [6, 24]: 130/100
Duration (period of observation from onset of reversal of arrhythmia) [6, 24]: 3 min
H.R. (heart rate), Lidocaine-treated [6, 24]: 80 per min
S.R. (sinus rhythm), Lidocaine-treated [6, 24]: +
B.P. (blood pressure), Lidocaine-treated [6, 25]: 60/40 and 120/80
H.R. (heart rate), Lidocaine-treated [6, 25]: 150 per min and 110 per min
reappearance of arrhythmia after lidocaine ([6]; cats 12 and 13): Arrhythmia reappeared
Onset of effect, occlusion-induced arrhythmia within 1st 24 hr. ([7]; i.v.): 2 min
Single therapeutic dose for suppression of Occlusion-induced arrhythmia within 1st 24 hr. after operation ([7]; i.v.): often ineffective
effect of lidocaine on occlusion-induced arrhythmia ([7]; same animals, bolus i.v. 3 mg/kg): either completely ineffective or of ultra-short duration

Cc1cccc(C)c1NC(=O)C1CN2CCC1CC2 (centres unmarked) [Compound I, 2,6-xylidide of quinuclidine-3-carboxylic acid hydrochloride]
half-life ([8]; i.v. single therapeutic dose, conscious arrhythmic dogs, venous blood, GC, read-out: Biological half-life (t1/2)): 4 to 5 h
half-life ([8]; i.v. single therapeutic dose, conscious arrhythmic dogs, read-out: t1/2 for distribution): 0.0833 h
half-life ([8]; summary table, read-out: t1/2 for distribution): 0.0833 h
half-life ([8]; summary table, read-out: t1/2 for elimination): 4 to 5 h
Vd ([8]; summary table, read-out: volume of distribution): 0.2 L/kg
effect against electro shock-induced seizure [9]: equally ineffective
Duration of effect, ouabain-induced arrhythmia [4]: about 1 hour
Onset of effect, ouabain-induced arrhythmia [4]: about 2 minutes
change in posture, behavior or mood (conscious, healthy dogs): no significant change in posture, behavior or mood from control
effect against Indoklon-induced seizures [10]: equally ineffective
side effects [11]: absence of side effects such as hypotension and CNS stimulation
change in the ECG (normal heart [12]): no change in the ECG
Side effects: CNS-effects [5]: none
Side effects: Emesis [5]: partial
B.P. (blood pressure), Compound I treated ([6]; cat 1, 0.5 mg/kg used): 80/60
Duration (period of observation from onset of reversal of arrhythmia) ([6]; cat 1, 0.5 mg/kg used): 10 min
H.R. (heart rate), Compound I treated ([6]; cat 1, 0.5 mg/kg used): 100 per min
S.R. (sinus rhythm), Compound I treated ([6]; cat 1, 0.5 mg/kg used): +
Duration (period of observation from onset of reversal of arrhythmia) ([6]; cat 3, bolus i.v. 1 mg/kg, after ouabain): 240 min
improvement of the ECG ([6]; cat, single dose 1 mg/kg, 10 minutes after constant arrhythmia, ouabain 70-90 μg/kg cumulative): marked improvement of the ECG that lasted much longer than any improvement achieved with lidocaine
reappearance of arrhythmia and response to additional dose ([6]; cats marked ##, additional dose 1 mg/kg for 2, 7 and 0.5 mg/kg for 10): suppressed again with an additional dose of EO-122
solubility (Solubility): highly soluble
bioavailability in conscious arrhythmic dogs ([13]; conscious arrhythmic dogs, oral, relative to healthy dog): of the same order
bioavailability ([13]; dog, in vivo, po, summary table): ~80%
Cmax ([13]; in vivo, oral 7.5 mg/kg in 6 gelatin capsules, conscious healthy dog, read-out: Peak blood concentration): 1500 to 2000 ng/mL
Onset of effect, occlusion-induced arrhythmia within 1st 24 hr. ([7]; i.v.): 2 min
duration of full, uninterrupted sinus rhythm ([7]; one bolus i.v. injection of 3 mg/kg within 24 hours after ligation): ≤ 20 min
H.R. (heart rate), Compound I treated ([14]; dog, conditions as Table 1): 170 per min
S.R. (sinus rhythm), Compound I treated ([14]; dog, conditions as Table 1): +
B.P. (blood pressure), Compound I treated [14, 26]: 100/80 and 140/110
Duration (period of observation from onset of reversal of arrhythmia) [14, 26]: 40 min and 25 min
reappearance of arrhythmia and response to additional dose ([14]; dogs 14, 15, one i.v. injection of […]): Arrhythmia reappeared after this period but was suppressed
reversal of VT to normal sinus rhythm ([14]; dogs, 1 mg/kg single doses): reversal of VT to normal sinus shythm was achieved
effect on metrazole-induced convulsions [15]: did not affect metrazole-induced convulsions
LD50 [16]: 60 ± 5 mg/kg
Side effects: Hypotension [17]: none
effect on ECG (normal heart [18]; cumulative dose 6 mg/kg): broadening of the QRS occurred but sinus rhythm was maintained
effect on ECG (normal heart [18]; cumulative dose 10.5 mg/kg): broadening of the QRS occurred but sinus rhythm was maintained
effect on ECG / conduction (normal heart [18]; cumulative dose 16.5 mg/kg, hydrochloride, 16.5 mg/kg): second degree AV block occurred; also recorded: Atrial conduction slowed down
time to disappearance of severe toxic effects (normal heart [18]; drug administration discontinued after 16.5 mg/kg cumulative, heart reverting to normal sinus rhythm): 40 min
effect on ECG / heart (normal heart [18]; further […], total cumulative dose 23.5 mg/kg): high degree AV block, followed by cardiac standstill
effect on ECG (normal heart [18]; total dose of 3 mg/kg in small increments over 34 minutes): leftward shift of the QRS complex
effect on ECG (normal heart [19]; dog, in vivo, 5 mg/kg): Broadening of the QRS complex was observed
time for ECG record to revert to normal (normal heart [19]; dog, in vivo, 5 mg/kg): ≤ 15 min
change in the ECG (normal heart [19]; dog, in vivo, iv, 3 mg/kg): no change in the ECG
other signs of overt toxicity (normal heart [19]; single dose of 5 mg/kg administered rapidly, one case): no other signs of overt toxicity
effect on oxotremorine-induced tremors [20]: did not affect oxotremorine-induced tremors
restoration of normal sinus rhythm [21]: fully effective in the restoration of normal sinus rhythm

Cc1cccc(C)c1NC(=O)C1CC2CCN1CC2 (centres unmarked) [Compound II, 2,6-xylidide of quinuclidine-2-carboxylic acid hydrochloride]
neurotoxicity [22]: clear signs of neurotoxicity such as undue excitement and lateral movements of the head
response in the electrocardiogram [22]: only a fleeting response in the electrocardiogram with only a few signs of improvement
effect in ouabain-induced arrhythmia [23]: precipitated ventricular fibrillation and death
cause of death (albino mice; 100 mg per kg): respiratory failure
lethal dose (albino mice; albino mice): 100 mg. per kg
Effects (albino mice; dose range 20-30 mg per kg): increased locomotion, excitation
Effects (albino mice; dose range 40-60 mg per kg, hydrochloride): pronounced neurotoxicity, ataxia; also recorded: partial paralysis
